Results as given in PMC10525516, “Novel NADPH Oxidase-2 Inhibitors as Potential Anti-Inflammatory and Neuroprotective Agents” (Antioxidants, 2023).

Tests used:
[1] = target: T1, Nox2 (Homo sapiens, UniProt P04839); test: Plate reader hydroethidine (HE + DNA) assay of O2•− production by PMA-activated dHL60 cells; format: cell-based
T1 construct: endogenous in cells
T1 sequence (P04839 2-570 limits assumed): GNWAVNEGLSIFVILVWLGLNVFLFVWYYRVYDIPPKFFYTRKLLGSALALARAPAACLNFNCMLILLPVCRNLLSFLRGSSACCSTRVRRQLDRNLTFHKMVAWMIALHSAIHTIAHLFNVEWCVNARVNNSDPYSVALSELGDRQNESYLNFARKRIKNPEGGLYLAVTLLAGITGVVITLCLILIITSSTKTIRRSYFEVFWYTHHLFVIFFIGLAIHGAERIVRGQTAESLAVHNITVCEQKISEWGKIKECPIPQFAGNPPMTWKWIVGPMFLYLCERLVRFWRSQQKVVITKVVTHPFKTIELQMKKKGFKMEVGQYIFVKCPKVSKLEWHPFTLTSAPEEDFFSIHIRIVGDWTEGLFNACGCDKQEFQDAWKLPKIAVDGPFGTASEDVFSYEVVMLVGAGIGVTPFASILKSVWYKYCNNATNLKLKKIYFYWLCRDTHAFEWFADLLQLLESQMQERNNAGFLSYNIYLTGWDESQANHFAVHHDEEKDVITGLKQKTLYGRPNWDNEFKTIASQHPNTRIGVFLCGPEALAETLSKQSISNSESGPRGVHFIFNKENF
T1 sequence (P13498 2-195 partner limits assumed): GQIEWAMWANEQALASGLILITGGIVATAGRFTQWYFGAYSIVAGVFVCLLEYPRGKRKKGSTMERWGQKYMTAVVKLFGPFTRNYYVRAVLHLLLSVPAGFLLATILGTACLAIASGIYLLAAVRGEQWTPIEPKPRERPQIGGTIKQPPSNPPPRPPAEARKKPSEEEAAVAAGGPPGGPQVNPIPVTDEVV
Protocol: Human promyelocytic leukemia HL60 cells (Sigma-Aldrich) were grown in RPMI 1640 medium (Gibco, 11875-093, Billings, MT, USA) supplemented with 10% FBS (Omega Scientific (Tarzana, CA, USA)), 100 units/mL penicillin, and 100 µg/mL streptomycin, and were incubated at 37 °C and 5% carbon dioxide (CO2). For differentiation to neutrophil-like cells, HL60 cells were pelleted and resuspended in fresh media containing 1 µM of all trans-retinoic acid and incubated for four to five days. Nox2 activation was achieved by treating differentiated HL60 (dHL60) cells with 1 µM PMA [24]. […]
Plate reader-based analyses of the production of O2^•− and H2O2 by PMA-activated dHL60 cells were performed according to a published protocol with minor modifications. […] Once probes + PMA were added, plates were sealed with sealing film and immediately placed in the pre-warmed plate readers (37 °C). Fluorescence intensities were monitored kinetically from the bottom of the plates every 1.3 min for a period of 2 h using Beckman Coulter (Brea, CA, USA) DTX880 and BMG Labtech (Ortenberg, Germany) FLUOstar Omega plate readers. […] The IC50 values were determined using at least five independent measurements, each consisting of technical quadruplicates per concentration.

[2] = In vivo pharmacokinetics / brain penetration, species not specified (rodent models); conditions: rat, intraperitoneal, 20 mg/kg, rodent models
Source text: Rapid metabolism and the inability to cross the BBB represent major obstacles in the application of bioactive agents in neurodegenerative diseases. Based on the premise that Nox2 plays a major role in oxidative damage and exacerbates neurodegenerative diseases, we envision applications of brain-permeable Nox2 inhibitors in mechanistic studies in vivo, and, long-term, in the development of novel therapeutic strategies. Therefore, we performed in vivo pharmacokinetics studies to determine the time profile of plasma concentration and accumulation of TG15-132 in the brain tissue of Sprague Dawley rats and C57BL6 mice.

[3] = Short-term (seven day) in vivo toxicity in mice; design: species or system C57BL/6 mice; conditions: 20 mg/kg i.p. daily for seven days
Protocol: All animal experiments were performed according to protocols and guidelines approved by the Emory University Animal Care and Use Committee. The in vivo toxicity of TG15-132 was assessed using C57BL/6 mice (cat. no. 027, Charles River Laboratories, Wilmington, MA, USA). Animals were injected daily (i.p.) with saline, vehicle (DMSO 10%, PEG400 30%, water 60%), or 20 mg/kg of TG15-132 in vehicle for seven days, with body weight recorded each day. At the end of treatment, organs were harvested to study organ weight loss, and blood was collected from each mouse via cardiac puncture, and serum was isolated. Serum was analyzed for kidney function using blood urea nitrogen and creatinine, liver function using alanine amino transferase, and tissue damage using lactate dehydrogenase.

IC50 ([1]; HE probe + DNA, plate reader, PMA-activated dHL60 cells, Figure 5C, read-out: IC50, inhibition of O2•− production): 5 µM
PMA-stimulated increase in HE fluorescence intensity ([1]; cell pretreatment, Figure 5B,C): dose-dependently inhibited
Kp ([2]; Sprague Dawley (rat), C57BL6 (mouse), mouse, brain, read-out: brain-to-plasma ratio (abstract)): > 5
half-life ([2]; Sprague Dawley, plasma, read-out: plasma half-life (abstract) (converted)): 5.6 h
SMILES: CN(C)CCCn1c(SCCc2c[nH]c3ccccc23)nc2ccc(F)cc2c1=O [TG15-132]
blood urea nitrogen compared with saline-treated mice [3]: significant drop
weights of the lung, liver, or brain [3]: no changes
loss of body weight ([3]; marginal and nonsignificant): 7%
serum injury markers (BUN, creatinine, ALT, LDH) vs vehicle ([3]; n = 6): no differences
